The test system of one test is Aβtotal. Kind of test: Screening for γ-secretase-modulating activity: Aβtotal in supernatant of SKNBE2 cells carrying hAPP 695 wild type (Alphalisa). Particulars: overnight incubation, Alphalisa on supernatant. The format is cell-based, human. The protocol:
(§1) Pharmacology A) Screening of the Compounds of the Invention for γ-Secretase-Modulating Activity
(§2) Screening was carried out using SKNBE2 human neuroblastoma cells carrying the hAPP 695—wild type, grown in Dulbecco's Modified Eagle's Medium/Nutrient mixture F-12 (DMEM/NUT-mix F-12) (HAM) provided by Invitrogen (cat no. 10371-029) containing 5% Serum/Fe supplemented with 1% non-essential amino acids, 1-glutamine 2 mM, Hepes 15 mM, penicillin 50 U/mL (units/mL) en streptomycin 50 μg/mL. Cells were grown to near confluency.
(§3) The screening was performed using a modification of the assay as described in Citron et al (1997) Nature Medicine 3: 67. Briefly, cells were plated in a 384-well plate at 10^4 cells/well in Ultraculture (Lonza, BE12-725F) supplemented with 1% glutamine (Invitrogen, 25030-024), 1% non-essential amino acid (NEAA), penicillin 50 U/mL en streptomycin 50 μg/mL in the presence of test compound at different test concentrations. The cell/compound mixture was incubated overnight at 37° C., 5% CO2. The next day the media were assayed by two sandwich immuno-assays, for Aβ42 and Aβtotal.
(§4) Aβtotal and Aβ42 concentrations were quantified in the cell supernatant using the Aphalisa technology (Perkin Elmer). Alphalisa is a sandwich assay using biotinylated antibody attached to streptavidin coated donorbeads and antibody conjugated to acceptor beads. In the presence of antigen, the beads come into close proximity. The excitation of the donor beads provokes the release of singlet oxygen molecules that trigger a cascade of energy transfer in the acceptor beads, resulting in light emission. To quantify the amount of Aβ42 in the cell supernatant, monoclonal antibody specific to the C-terminus of Aβ42 (JRF/cAβ42/26) was coupled to the receptor beads and biotinylated antibody specific to the N-terminus of Aβ (JRF/AβN/25) was used to react with the donor beads. To quantify the amount of Aβ total in the cell supernatant, monoclonal antibody specific to the N-terminus of Aβ (JRF/AβN/25) was coupled to the receptor beads and biotinylated antibody specific to the mid region of Aβ (biotinylated 4G8) was used to react with the donor beads.
(§5) To obtain the values reported in Table 3, the data are calculated as percentage of the maximum amount of amyloid Beta 42 measured in the absence of the test compound. The sigmoidal dose response curves were analyzed using nonlinear regression analysis with percentage of the control plotted against the log concentration of the compound. A 4-parameter equation was used to determine the IC50.

A further test has as its system Aβ42. Kind of test: Screening for γ-secretase-modulating activity: Aβ42 in supernatant of SKNBE2 cells carrying hAPP 695 wild type (Alphalisa). Type of test: cell-based, human. Conditions: overnight incubation, Alphalisa on supernatant. The protocol:
as §1, §2, §3, §4, §5

Where [1] appears, read: SKNBE2 human neuroblastoma cells carrying hAPP 695 wild type.
[2] abbreviates: Homo sapiens, SKNBE2, SKNBE2 human neuroblastoma cells carrying hAPP 695 wild type.

Usually IC50 stands for the concentration that gives 50% inhibition. A low value points to inhibition by little substance.

Some results are limits rather than exact numbers.

As for `COc1c(C#N)ccc2[nH]c(-c3nc4n(n3)CCOC4c3cccc(C)c3F)cc12` (single isomer, unassigned) [Compound 149, 2-[8-(2-fluoro-3-methylphenyl)-5,6-dihydro-8H-[1,2,4]triazolo[5,1-c][1,4]oxazin-2-yl]-4-methoxy-1H-indole-5-carbonitrile], the IC50 is over 10000 nM in the test on Aβtotal (setting [1]) and 1860 nM in the test with Aβ42 (setting [1]).

For the compound `COc1c(C#N)ccc2[nH]c(-c3nc4n(n3)CCOC4c3cc(C(F)(F)F)ccc3F)cc12` (single isomer, unassigned) [Compound 160, 2-[8-[2-fluoro-5-(trifluoromethyl)phenyl]-5,6-dihydro-8H-[1,2,4]triazolo[5,1-c][1,4]oxazin-2-yl]-4-methoxy-1H-indole-5-carbonitrile], the 50% inhibitory concentration (IC50) is over 10000 nM with Aβtotal (setting [2]) and 5130 nM with Aβ42 (setting [1]).

Take `COc1c(C#N)ccc2[nH]c(-c3nc4n(n3)CCOC4c3cc(C(F)(F)F)ccc3F)cc12` (single isomer, unassigned) [Compound 161, 2-[8-[2-fluoro-5-(trifluoromethyl)phenyl]-5,6-dihydro-8H-[1,2,4]triazolo[5,1-c][1,4]oxazin-2-yl]-4-methoxy-1H-indole-5-carbonitrile]: the IC50 is over 10000 nM with Aβtotal (setting [1]) and 98 nM with Aβ42 (setting [1]).

Consider `Cc1cc(F)ccc1C1OCCn2nc(-c3cc4c(OC(C)C)c(C#N)ccc4[nH]3)nc21` (single isomer, unassigned) [Compound 172, 2-[8-(4-fluoro-2-methylphenyl)-5,6-dihydro-8H-[1,2,4]triazolo[5,1-c][1,4]oxazin-2-yl]-4-(1-methylethoxy)-1H-indole-5-carbonitrile], for which the IC50 in the test on Aβtotal (setting [1]) and in the test on Aβ42 (setting [1]) was over 10000 nM throughout.

As to `Cc1cc(F)ccc1C1OCCn2nc(-c3cc4c(OC(C)C)c(C#N)ccc4[nH]3)nc21` (single isomer, unassigned) [Compound 173, 2-[8-(4-fluoro-2-methylphenyl)-5,6-dihydro-8H-[1,2,4]triazolo[5,1-c][1,4]oxazin-2-yl]-4-(1-methylethoxy)-1H-indole-5-carbonitrile], the 50% inhibitory concentration (IC50) in the test on Aβtotal (setting [2]) is over 10000 nM; in the test with Aβ42 (setting [1]), 251 nM.

Regarding `Cc1cc(-c2ccc3[nH]c(-c4nc5n(n4)CCCC5c4ccc(F)cc4C)nc3c2)ccn1` (single isomer, unassigned) [Compound 174, 8-(4-fluoro-2-methylphenyl)-5,6,7,8-tetrahydro-2-[5-(2-methyl-4-pyridinyl)-1H-benzimidazol-2-yl]-[1,2,4]triazolo[1,5-a]pyridine], the figures for the IC50 in the test on Aβtotal (setting [2]) and in the test with Aβ42 (setting [1]) were over 10000 nM and 110 nM, respectively.

For the compound `Cc1cc(-c2ccc3[nH]c(-c4nc5n(n4)CCCC5c4ccc(F)cc4C)nc3c2)ccn1` (single isomer, unassigned) [Compound 175, 8-(4-fluoro-2-methylphenyl)-5,6,7,8-tetrahydro-2-[5-(2-methyl-4-pyridinyl)-1H-benzimidazol-2-yl]-[1,2,4]triazolo[1,5-a]pyridine], the figures for the IC50 in the test with Aβtotal (setting [1]) and in the test on Aβ42 (setting [1]) were over 10000 nM and 28 nM, respectively.

In the case of `Cc1cc(F)ccc1C1CCCn2nc(-c3[nH]c4ccc(C#N)cc4c3F)nc21` (single isomer, unassigned) [Compound 181, 3-fluoro-2-[8-(4-fluoro-2-methylphenyl)-5,6,7,8-tetrahydro[1,2,4]triazolo[1,5-a]pyridin-2-yl]-1H-indole-5-carbonitrile], the values for the IC50 in the test with Aβtotal (setting [2]) and in the test with Aβ42 (setting [1]) were over 10000 nM and 5890 nM, respectively.

Consider `Cc1cc(-c2ccc3[nH]c(-c4nc5n(n4)CCCC5c4ccccc4C(F)(F)F)cc3c2)ccn1` (centres unmarked) [Compound 2, 5,6,7,8-tetrahydro-2-[5-(2-methyl-4-pyridinyl)-1H-indol-2-yl]-8-[2-(trifluoromethyl)phenyl]-[1,2,4]triazolo[1,5-a]pyridine], for which the IC50 in the test with Aβtotal (setting [2]) turned out to be 7410 nM; in the test on Aβ42 (setting [2]), 22 nM.

With `Cc1ccc(C(F)(F)F)cc1C1CCCn2nc(-c3cc4cc(C#N)cnc4[nH]3)nc21` (centres unmarked) [Compound 3, 2-[5,6,7,8-tetrahydro-8-[2-methyl-5-(trifluoromethyl)phenyl][1,2,4]triazolo[1,5-a]pyridin-2-yl]-1H-pyrrolo[2,3-b]pyridine-5-carbonitrile], the figures for the IC50 with Aβtotal (setting [2]) and with Aβ42 (setting [2]) were over 10000 nM and 437 nM, respectively.

On to `Cc1cc(F)ccc1C1CCCn2nc(-c3cc4cc(C#N)ccc4[nH]3)nc21` (centres unmarked) [Compound 11, 2-[8-(4-fluoro-2-methylphenyl)-5,6,7,8-tetrahydro[1,2,4]triazolo[1,5-a]pyridin-2-yl]-1H-indole-5-carbonitrile], for which the IC50 is over 10000 nM in the test with Aβtotal (setting [1]) and 3470 nM in the test on Aβ42 (setting [1]).

`Cc1ccccc1C1CCCn2nc(-c3cc4cc(C#N)ccc4[nH]3)nc21` (centres unmarked) [Compound 14, 2-[5,6,7,8-tetrahydro-8-(2-methylphenyl)[1,2,4]triazolo[1,5-a]pyridin-2-yl]-1H-indole-5-carbonitrile]: the concentration for half-maximal inhibition (IC50) in the test on Aβtotal (setting [1]) is over 10000 nM; in the test with Aβ42 (setting [1]), 2950 nM.

On to `Cc1ccccc1C1CCCn2cc(-c3cc4cc(C#N)ccc4[nH]3)nc21` (centres unmarked) [Compound 15, 2-[5,6,7,8-tetrahydro-8-(2-methylphenyl)imidazo[1,2-a]pyridin-2-yl]-1H-indole-5-carbonitrile], for which the IC50 in the test on Aβtotal (setting [2]) is over 10000 nM; with Aβ42 (setting [2]), 89 nM.

On to `N#Cc1ccc2[nH]c(-c3cn4c(n3)C(c3ccccc3C(F)(F)F)CCC4)cc2c1` (centres unmarked) [Compound 17, 2-[5,6,7,8-tetrahydro-8-[2-(trifluoromethyl)phenyl]imidazo[1,2-a]pyridin-2-yl]-1H-indole-5-carbonitrile], for which the figures for the IC50 with Aβtotal (setting [2]) and in the test on Aβ42 (setting [2]) were over 10000 nM and 87 nM, respectively.

Consider `Cc1cc(F)ccc1C1CCCn2nc(-c3cc4cc(C#N)cnc4[nH]3)nc21` (centres unmarked) [Compound 23, 2-[8-(4-fluoro-2-methylphenyl)-5,6,7,8-tetrahydro[1,2,4]triazolo[1,5-a]pyridin-2-yl]-1H-pyrrolo[2,3-b]pyridine-5-carbonitrile], for which the IC50 with Aβtotal (setting [2]) was over 10000 nM; in the test on Aβ42 (setting [2]), 589 nM.

`Cc1ccccc1C1CCCn2nc(-c3cc4cc(C#N)ncc4[nH]3)nc21` (centres unmarked) [Compound 24, 2-[5,6,7,8-tetrahydro-8-(2-methylphenyl)[1,2,4]triazolo[1,5-a]pyridin-2-yl]-1H-pyrrolo[2,3-c]pyridine-5-carbonitrile]: the IC50 in the test on Aβtotal (setting [2]) was over 10000 nM; in the test on Aβ42 (setting [2]), 257 nM.

Take `COc1cc2[nH]c(-c3nc4n(n3)CCCC4c3ccccc3C(F)(F)F)cc2cc1C#N` (centres unmarked) [Compound 28, 6-methoxy-2-[5,6,7,8-tetrahydro-8-[2-(trifluoromethyl)phenyl][1,2,4]triazolo[1,5-a]pyridin-2-yl]-1H-indole-5-carbonitrile]: the IC50 with Aβtotal (setting [2]) was over 10000 nM; in the test on Aβ42 (setting [2]), 107 nM.

Take `Cc1ccc(C(F)(F)F)cc1C1OCCn2nc(-c3cc4cc(C#N)ccc4[nH]3)nc21` (centres unmarked) [Compound 34, 2-[5,6-dihydro-8-[2-methyl-5-(trifluoromethyl)phenyl]-8H-[1,2,4]triazolo[5,1-c][1,4]oxazin-2-yl]-1H-indole-5-carbonitrile]: the half-maximal inhibitory concentration (IC50) in the test on Aβtotal (setting [2]) was over 10000 nM; in the test with Aβ42 (setting [2]), 692 nM.

Take `N#Cc1ccc2[nH]c(-c3nc4n(n3)CCOC4c3ccccc3C(F)(F)F)cc2c1` (centres unmarked) [Compound 35, 2-[5,6-dihydro-8-[2-(trifluoromethyl)phenyl]-8H-[1,2,4]triazolo[5,1-c][1,4]oxazin-2-yl]-1H-indole-5-carbonitrile]: the IC50 was over 10000 nM in the test with Aβtotal (setting [2]) and 363 nM with Aβ42 (setting [2]).

On to `COc1c(C#N)ccc2[nH]c(-c3cn4c(n3)C(c3cccc(F)c3C)OCC4)cc12` (centres unmarked) [Compound 40, 2-[8-(3-fluoro-2-methylphenyl)-5,6-dihydro-8H-imidazo[2,1-c][1,4]oxazin-2-yl]-4-methoxy-1H-indole-5-carbonitrile], for which the IC50 was over 10000 nM in the test on Aβtotal (setting [2]) and 35 nM with Aβ42 (setting [1]).

For the compound `COc1c(C#N)ccc2[nH]c(-c3cn4c(n3)C(c3cccc(F)c3C)OCC4)cc12` (centres unmarked) [Compound 42, 2-[8-(3-fluoro-2-methylphenyl)-5,6-dihydro-8H-imidazo[2,1-c][1,4]oxazin-2-yl]-4-methoxy-1H-indole-5-carbonitrile], the IC50 in the test on Aβtotal (setting [1]) is over 10000 nM; in the test with Aβ42 (setting [1]), 468 nM.

For `COc1c(C#N)ccc2[nH]c(-c3cn4c(n3)C(c3ccccc3Cl)OCC4)cc12` (centres unmarked) [Compound 49, 2-[8-(2-chlorophenyl)-5,6-dihydro-8H-imidazo[2,1-c][1,4]oxazin-2-yl]-4-methoxy-1H-indole-5-carbonitrile], the values for the IC50 in the test with Aβtotal (setting [2]) and in the test on Aβ42 (setting [1]) were over 10000 nM and 58 nM, respectively.

Source of the values: patent US9115143B2, “Substituted indole derivatives as gamma secretase modulators” (Janssen Pharmaceuticals, Inc., priority 2011, dated 2015).
